Source: US20080182234A1, “Methods and Compositions for Modulating Adenosine Triphosphate (ATP) in Cells and Preventing Cell Injury or Death via Post-translational Modifications to ATP Synthase” (priority 2001, published 2008)
Entries after “also recorded” stand apart in the source; their conditions may differ.

Assays:
[1] = system: ATP synthase β chain precursor; test: Two-dimensional gel electrophoresis (silver stain, western blot) of cytoplasmic extract of adenosine-treated isolated myocytes; assay type: cell-based, rabbit
Experimental: Ventricular myocytes from New Zealand White rabbits (weighing 1 to 2 kg) were isolated by collagenase dissociation, as described previously by Liu et al. (Circ. Res. 1996 78:443-454). Hearts were excised, then perfused with collagenase (1.0 mg/mL, Worthington type II) for 14 minutes at a maintained perfusion pressure of 75 mm Hg on a Langendorff apparatus, yielding >50% Ca^2+-tolerant ventricular myocytes. Cell isolation was followed directly by pharmacological preconditioning, which was carried out by treatment with 100 μmol/L adenosine (Sigma) for 60 minutes in a 37° C. water bath, as described previously by Liu et al. supra. Untreated cells were prepared concurrently as drug-free controls. Equivalent 25 μL aliquots of cells (containing ˜30 mg/mL of protein as determined by Lowry assay (Lowry, O. H. J. Biol. Chem. 1951 193:265-275) were frozen and stored at −80° C. until analysis. All steps in the “1N Sequence” protein extraction protocol to produce cytoplasmic and myofilament enriched extracts were carried out at 4° C., and all centrifugations were conducted at 16000×g for 2 minutes at 4° C. Myocyte proteins were first extracted by two rounds of homogenization in 100 μL of HEPES extraction buffer, consisting of (in mmol/L) HEPES 25 (pH 7.4), NaF 50, Na3VO4 0.25, phenylmethylsulfonyl fluoride 0.25, EDTA 0.5, and (in μmol/L) leupeptin 1.25, pepstatin A 1.25. […]

[2] = system: isolated myocytes obtained from rabbit hearts; details: 100 μM adenosine for 60 minutes; cited from earlier work

For Nc1ncnc2c1ncn2[C@@H]1O[C@H](CO)[C@@H](O)[C@H]1O [adenosine], the “additional, more acidic spots at the molecular weight of intact ATP synthase β chain precursor on 2-D gel (silver stain or western blot)” value ([1]; isolated rabbit cardiomyocytes, 100 μM adenosine for 60 minutes, cytoplasmic extract, n=4, control had only a single protein spot) is given as “Two additional spots”, the “post-translational modifications of ATP synthase β-chain precursor” value ([1]; isolated rabbit myocytes treated with adenosine for 60 minutes (n=4) versus untreated myocytes) is given as “An increase in the post-translational modifications; also recorded: Post-translational modifications to the ATP synthase β-chain precursor were detected” and the “protection against cell death” value [2] is given as “sufficient to protect against cell death”.
